Among the data in BindingDB's records for patent US20240246981 (Boehringer Ingelheim International, 2024) are IC50 values, retold here.

Structures are written as SMILES.

One may read the IC50 as the concentration that inhibits the measured activity by half. A low value points to higher potency.

The target in assay [1] is Glutaminyl-peptide cyclotransferase (Homo sapiens, UniProt Q16769). The assay is described as follows: Biochemical QPCT and QPCTL Activity Assay. On the procedure: (§1) QPCT or QPCTL dependent conversion of N-terminal glutamine to pyroglutamate of CD47 was monitored via MALDI-TOF MS. Test compounds were dissolved in 100% DMSO and serially diluted into clear 1,536-well microtiter plates. Enzymatic reactions were set up in assay buffer containing 20 mM Tris pH 7.5, 0.1 mM TCEP, 0.01% BSA, and 0.001% Tween20. […] The plates were incubated for 10 min in a humidified incubator at 24° C. Subsequently, 2.5 μL of CD47 peptide substrate surrogate (19[…]33) was added to each well (final concentration: 10 μM for QPCTL/20 μM for QPCT). The plates were mixed for 30 sec at 1,000 rpm and subsequently incubated for 40 min in a humidified incubator at 24° C. […] The plates were sealed with an adhesive foil, mixed for 30 s at 1,000 rpm and stored at room temperature until preparation of the MALDI target plates. MALDI target plates were prepared as described previously.
Glutaminyl-peptide cyclotransferase, sequence (Q16769 whole entry): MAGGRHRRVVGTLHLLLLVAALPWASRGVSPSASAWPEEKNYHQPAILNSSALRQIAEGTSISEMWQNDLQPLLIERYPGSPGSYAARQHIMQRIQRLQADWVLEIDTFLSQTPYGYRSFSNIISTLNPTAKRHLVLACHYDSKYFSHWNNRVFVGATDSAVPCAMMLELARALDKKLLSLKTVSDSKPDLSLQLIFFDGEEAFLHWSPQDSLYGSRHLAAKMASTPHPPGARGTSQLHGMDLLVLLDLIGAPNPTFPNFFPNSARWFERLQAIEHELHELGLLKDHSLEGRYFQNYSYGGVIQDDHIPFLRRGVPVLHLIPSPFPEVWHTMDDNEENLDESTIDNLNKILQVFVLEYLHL

Assay [2] concerns the target Glutaminyl-peptide cyclotransferase-like protein (Homo sapiens, UniProt Q9NXS2). As to the kind of experiment: Biochemical QPCT and QPCTL Activity Assay. Here is the method: as §1

Glutaminyl-peptide cyclotransferase-like protein, sequence (Q9NXS2 whole entry): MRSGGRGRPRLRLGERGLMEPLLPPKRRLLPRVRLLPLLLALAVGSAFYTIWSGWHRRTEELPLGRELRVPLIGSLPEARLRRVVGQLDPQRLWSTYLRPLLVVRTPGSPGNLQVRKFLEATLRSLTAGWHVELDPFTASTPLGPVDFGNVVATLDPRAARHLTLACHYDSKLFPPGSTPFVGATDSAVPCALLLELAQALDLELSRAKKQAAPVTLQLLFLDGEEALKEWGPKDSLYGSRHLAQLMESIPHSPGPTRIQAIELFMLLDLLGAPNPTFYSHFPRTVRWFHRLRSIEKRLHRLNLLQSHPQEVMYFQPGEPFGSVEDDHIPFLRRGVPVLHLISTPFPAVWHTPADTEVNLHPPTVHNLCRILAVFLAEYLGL

With `Cn1cnnc1C1CCN(c2c(C#N)cccc2-c2cnc(F)c(OC3CCC3)c2)CC1` [US20240246981, Example 34], the half-inhibitory concentration (IC50) was determined as 6 nM in assay [1] and 1 nM in assay [2]. Take `Cn1cnnc1C1CCN(c2c(C#N)cccc2-c2cnc(F)c(Oc3ccccc3)c2)CC1` [US20240246981, Example 38]: in assay [2], the IC50 came to 13 nM. On to `Cn1cnnc1C1CCN(c2c(C#N)cccc2-c2cncc(-c3ccccc3)c2)CC1` [US20240246981, Example 21], for which the figures for the half-maximal inhibitory concentration (IC50) in assay [1] and in assay [2] were 195 nM and 50 nM, respectively. For `Cn1cnnc1C1CCN(c2c(C#N)cccc2-c2cnc(F)c(OC(F)F)c2)CC1` [US20240246981, Example 37] the same measures were 28 nM and 8 nM. In the same order, the values of `Cn1cnnc1C1(C)CCN(c2c(C#N)cccc2-c2cccnc2)CC1` [US20240246981, Example 65] are 9 nM and 26 nM.

The compound `Cn1cnnc1C1(F)CCN(c2c(C#N)cccc2-c2cnc(=O)n(C)c2)CC1` [US20240246981, Example 58] had a 50% inhibitory concentration (IC50) in assay [2] of 1 nM.

`Cn1cnnc1C1(F)CCN(c2c(C#N)cccc2-c2cnc3nn(CC(F)(F)F)cc3c2)CC1` [US20240246981, Example 55]: the IC50 in assay [2] was found to be 1 nM. As to `Cn1cnnc1C1CCN(c2c(C#N)cccc2-c2cncc(OC(F)F)c2)CC1` [US20240246981, Example 23], the IC50 in assay [1] was determined as 162 nM; in assay [2], 31 nM.

`Cn1cnnc1C1CCN(c2c(C#N)cccc2-c2cnc3nn(C)c(C(F)(F)F)c3c2)CC1` [US20240246981, Example 41] returned an IC50 in assay [1] of 9 nM.
